Measurements published in article PMC4297292 (Cancer Cell, 2015).

Experiments:
[1] = system: caspase 3 and PARP cleavage in patient #2 cells; assay: PARP and caspase 3 immunoblot; assay type: cell-based; conditions: 1 μM; 4 hr
[2] = system: NRAS mutant D04 xenograft; assay: Xenograft growth; assay type: in vivo; conditions: 20 mg/kg oral daily; nude mice
A375 cells = assay: Colony formation; assay type: cell-based; conditions: 0.5 μM; 20 days
A375/R cells = assay: Cell proliferation assay; assay type: cell-based; conditions: CellTiter Glo
[3] = system: A375/R xenograft (PLX4720-resistant A375); assay: Xenograft growth; assay type: in vivo, nude mice; conditions: 20 mg/kg oral daily
[4] = system: patient #2 cells (vemurafenib-resistant melanoma); assay: Cell proliferation assay; assay type: cell-based; conditions: CellTiter Glo
[5] = Single and repeat dose tolerability / oral toxicity; assay type: in vivo, CD-1 mice; conditions: 30 mg/kg for 4 days; oral gavage
[6] = system: patient #2 cell xenograft; assay: Xenograft growth; assay type: in vivo, nude mice
[7] = system: Ba/F3 cells transformed with BRAF^T529N,V600E; assay: Growth of Ba/F3 cells; assay type: cell-based; conditions: [3H]-thymidine incorporation
[8] = system: BRAF^V600E A375 xenograft; assay: Xenograft growth; assay type: in vivo, nude mice; conditions: 20 mg/kg/day oral, 7 days/week; nude mice
COT = COT (Homo sapiens, UniProt P41279); assay: Z'-LYTE kinase assay; assay type: biochemical
[9] = Pharmacokinetic studies, plasma, oral and intravenous dosing; assay type: in vivo, Balb/c mice
[10] = system: panel of 63 protein kinases; assay: Efficacy against a panel of protein kinases; assay type: biochemical; conditions: 1 μM, percent activity compared to DMSO
NRAS mutant D04 cells = assay: Cell proliferation assay; assay type: cell-based; conditions: CellTiter Glo
[11] = system: melanoma and colorectal cancer cell lines that are mutant for BRAF; assay: Cell growth inhibition; assay type: cell-based; conditions: Figures 2A and 2B
[12] = system: MEK in NRAS mutant D04 cells; assay: pMEK/pERK immunoblot; assay type: cell-based; conditions: 24 hr
[13] = system: RAS mutant melanoma and colorectal cancer cells; assay: Cell growth inhibition; assay type: cell-based; conditions: Figures 2A and 2B
[14] = system: PLX4720-resistant PDX from patient #1; assay: PDX growth; assay type: in vivo, NSG mice; conditions: PLX4720 45 mg/kg, CCT compounds 20 mg/kg daily gavage
[15] = system: cell lines from patient #5 tumor; assay: Cell proliferation assay; assay type: cell-based; conditions: CellTiter Glo
BRAF^V600E A375 cells = assay: Cell proliferation assay; assay type: cell-based; conditions: CellTiter Glo
patient #3 PDX = assay: PDX growth; assay type: in vivo, NSG mice
[16] = system: cancer cells that are wild-type for BRAF and NRAS; assay: Cell growth inhibition; assay type: cell-based; conditions: Figure 2A, in general
SK-Mel 23 cells = assay: Cell growth inhibition; assay type: cell-based; conditions: Figure 2A
SRC = SRC (Homo sapiens, UniProt P12931); assay: Z'-LYTE kinase assay; assay type: biochemical; conditions: inhibits SRC at
MEK1 = MEK1 (Homo sapiens, UniProt Q02750); assay: Z'-LYTE kinase assay; assay type: biochemical
[17] = system: MEK, ERK and SRC/SFKs in patient #2 cells; assay: pMEK, pERK, pSFK immunoblot; assay type: cell-based; conditions: 4 hr
BRAF^T529N,V600E = assay: BRAF kinase inhibition, gatekeeper mutant; assay type: biochemical
[18] = system: ERK activity in SK-Mel 23 cells; assay: pERK immunoblot; assay type: cell-based; conditions: 1 μM; 4 hr
LCK = LCK (Homo sapiens, UniProt P06239); assay: Z'-LYTE kinase assay; assay type: biochemical
patient #3 tumor cells = assay: Cell proliferation assay; assay type: cell-based; conditions: CellTiter Glo
PDX from patient #5 = assay: PDX growth; assay type: in vivo, NSG mice
PDX from patient #13 = assay: PDX growth; assay type: in vivo, NSG mice; conditions: 20 mg/kg daily gavage; patient #13 PDX study
[19] = system: MEK and ERK in WM266.4 cells (BRAF mutant); assay: pMEK/pERK immunoblot; assay type: cell-based; conditions: 24 hr
[20] = system: ERK and SRC in patient #3 PDX; assay: pERK/pSFK immunoblot in PDX; assay type: in vivo, mice; conditions: PLX4720 45 mg/kg, CCT compounds 20 mg/kg daily gavage
patient #4 PDX = assay: PDX growth; assay type: in vivo, NSG mice
CRAF = CRAF (Homo sapiens, UniProt P04049, Y340D/Y341D); assay: Z'-LYTE kinase assay; assay type: biochemical; conditions: Table 1
BRAF = BRAF (Homo sapiens, UniProt P15056); assay: Z'-LYTE kinase assay; assay type: biochemical
[21] = PLX4720 45 mg/kg, CCT compounds 20 mg/kg daily gavage, NSG mice

COT, sequence (P41279 whole entry): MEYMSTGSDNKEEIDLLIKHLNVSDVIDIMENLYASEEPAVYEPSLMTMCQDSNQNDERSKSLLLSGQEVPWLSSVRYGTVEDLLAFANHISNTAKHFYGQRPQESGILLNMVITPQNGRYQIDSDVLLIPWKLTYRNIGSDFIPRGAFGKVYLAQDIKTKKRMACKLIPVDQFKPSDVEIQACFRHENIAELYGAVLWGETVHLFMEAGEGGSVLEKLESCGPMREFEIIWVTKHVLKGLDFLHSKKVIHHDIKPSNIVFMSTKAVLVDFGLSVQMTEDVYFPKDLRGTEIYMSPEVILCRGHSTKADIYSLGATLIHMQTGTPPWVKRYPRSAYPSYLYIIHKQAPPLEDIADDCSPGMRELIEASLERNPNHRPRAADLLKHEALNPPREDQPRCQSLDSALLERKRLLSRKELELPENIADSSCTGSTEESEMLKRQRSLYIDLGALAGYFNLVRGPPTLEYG
BRAF, sequence (P15056 whole entry): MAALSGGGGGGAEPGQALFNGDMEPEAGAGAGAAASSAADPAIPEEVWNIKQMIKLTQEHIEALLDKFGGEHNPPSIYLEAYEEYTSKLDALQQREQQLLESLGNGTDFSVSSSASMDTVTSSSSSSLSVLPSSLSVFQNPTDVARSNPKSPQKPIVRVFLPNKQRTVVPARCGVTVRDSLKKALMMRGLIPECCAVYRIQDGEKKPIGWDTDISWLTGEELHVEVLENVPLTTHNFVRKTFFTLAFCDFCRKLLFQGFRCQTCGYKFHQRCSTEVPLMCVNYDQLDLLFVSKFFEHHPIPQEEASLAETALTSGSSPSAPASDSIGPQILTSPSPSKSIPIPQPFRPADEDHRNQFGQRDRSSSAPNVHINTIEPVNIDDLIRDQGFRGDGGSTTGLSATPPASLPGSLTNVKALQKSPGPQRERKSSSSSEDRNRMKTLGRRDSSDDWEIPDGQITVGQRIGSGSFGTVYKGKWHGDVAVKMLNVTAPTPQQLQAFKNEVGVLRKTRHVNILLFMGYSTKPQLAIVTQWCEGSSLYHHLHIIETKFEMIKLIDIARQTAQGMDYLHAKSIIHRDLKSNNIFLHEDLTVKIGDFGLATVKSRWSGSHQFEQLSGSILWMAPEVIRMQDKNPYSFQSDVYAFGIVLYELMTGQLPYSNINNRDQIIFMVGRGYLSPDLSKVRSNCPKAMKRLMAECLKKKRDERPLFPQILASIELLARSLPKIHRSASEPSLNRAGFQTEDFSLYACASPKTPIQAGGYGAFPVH
SRC, sequence (P12931 whole entry): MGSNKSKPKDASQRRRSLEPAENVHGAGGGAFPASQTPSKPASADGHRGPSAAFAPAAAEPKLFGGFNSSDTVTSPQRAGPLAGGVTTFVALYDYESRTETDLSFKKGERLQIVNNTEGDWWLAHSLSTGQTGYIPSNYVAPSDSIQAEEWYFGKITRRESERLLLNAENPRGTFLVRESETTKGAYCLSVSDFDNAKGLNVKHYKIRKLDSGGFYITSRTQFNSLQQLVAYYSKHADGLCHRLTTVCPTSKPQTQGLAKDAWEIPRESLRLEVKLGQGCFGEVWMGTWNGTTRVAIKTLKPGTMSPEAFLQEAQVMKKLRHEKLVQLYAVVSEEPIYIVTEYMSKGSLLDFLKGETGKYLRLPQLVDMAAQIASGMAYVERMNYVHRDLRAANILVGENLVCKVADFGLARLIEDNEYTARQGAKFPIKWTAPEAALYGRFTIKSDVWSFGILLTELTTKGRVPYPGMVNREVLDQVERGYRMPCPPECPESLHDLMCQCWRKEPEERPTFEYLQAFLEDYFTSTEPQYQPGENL
MEK1, sequence (Q02750 whole entry): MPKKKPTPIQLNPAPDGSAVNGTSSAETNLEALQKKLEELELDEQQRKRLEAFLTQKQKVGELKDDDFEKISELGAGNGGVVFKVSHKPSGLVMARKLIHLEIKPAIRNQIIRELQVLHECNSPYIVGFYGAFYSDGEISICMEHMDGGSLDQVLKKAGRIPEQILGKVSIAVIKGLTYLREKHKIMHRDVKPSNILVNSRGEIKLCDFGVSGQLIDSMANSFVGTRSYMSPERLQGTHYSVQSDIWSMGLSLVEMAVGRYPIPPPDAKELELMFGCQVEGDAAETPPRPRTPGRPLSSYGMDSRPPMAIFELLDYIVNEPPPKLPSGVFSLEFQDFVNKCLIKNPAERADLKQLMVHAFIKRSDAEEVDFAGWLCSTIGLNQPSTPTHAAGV
CRAF, sequence (P04049 306-648 Y340D/Y341D limits assumed): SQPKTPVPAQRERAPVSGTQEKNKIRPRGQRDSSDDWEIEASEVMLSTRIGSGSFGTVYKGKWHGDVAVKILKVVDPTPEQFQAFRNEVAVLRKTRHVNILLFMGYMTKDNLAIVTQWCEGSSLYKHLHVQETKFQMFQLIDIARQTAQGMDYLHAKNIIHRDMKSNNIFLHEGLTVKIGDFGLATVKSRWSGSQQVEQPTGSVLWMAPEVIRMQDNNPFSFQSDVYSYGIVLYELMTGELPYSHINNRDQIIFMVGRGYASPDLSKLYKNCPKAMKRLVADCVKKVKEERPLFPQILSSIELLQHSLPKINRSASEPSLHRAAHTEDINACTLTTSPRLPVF
LCK, sequence (P06239 whole entry): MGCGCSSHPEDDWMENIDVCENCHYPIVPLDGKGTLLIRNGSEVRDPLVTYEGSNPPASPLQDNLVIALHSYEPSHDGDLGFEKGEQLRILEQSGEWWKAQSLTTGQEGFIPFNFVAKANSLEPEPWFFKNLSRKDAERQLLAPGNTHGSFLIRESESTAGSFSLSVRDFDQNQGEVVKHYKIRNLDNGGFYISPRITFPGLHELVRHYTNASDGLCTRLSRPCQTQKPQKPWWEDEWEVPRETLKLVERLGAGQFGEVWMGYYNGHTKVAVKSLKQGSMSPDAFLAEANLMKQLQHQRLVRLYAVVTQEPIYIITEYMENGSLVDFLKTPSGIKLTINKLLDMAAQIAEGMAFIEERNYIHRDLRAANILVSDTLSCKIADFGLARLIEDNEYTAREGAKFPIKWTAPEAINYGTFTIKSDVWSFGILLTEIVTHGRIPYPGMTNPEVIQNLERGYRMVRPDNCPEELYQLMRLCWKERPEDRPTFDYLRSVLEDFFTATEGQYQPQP

**Q.** For `CSc1cc(Oc2ccnc3[nH]c(=O)cnc23)ccc1NC(=O)Nc1cc(C(C)(C)C)nn1-c1ccccc1` [CCT241161], which “caspase 3 and PARP cleavage (apoptosis)” value [1] is on record?
**A.** induce caspase 3 and PARP cleavage

**Q.** What about the xenograft growth [2] of the same compound?
**A.** inhibit the growth

**Q.** What about the “colony formation under continual exposure” value (A375 cells) of the same compound?
**A.** no cells are able to grow

**Q.** And the “sensitivity of PLX4720-resistant A375 cells” value (A375/R cells)?
**A.** still sensitive

**Q.** What about the body weight ([3]; A375/R xenograft study) of the same compound?
**A.** without causing any body weight loss

**Q.** And the xenograft growth ([3]; nude mice)?
**A.** inhibit the growth

**Q.** What about the cell line sensitivity [4] of the same compound?
**A.** sensitive

**Q.** What about the weight loss [5] of the same compound?
**A.** do not cause significant weight loss

**Q.** And the body weight ([6]; 20 mg/kg oral daily, patient #2 xenograft study)?
**A.** without causing any body weight loss

**Q.** What about the xenograft growth ([6]; PLX4720 90 mg/kg, CCT compounds 20 mg/kg oral daily, nude mice) of the same compound?
**A.** complete inhibition

**Q.** What about the “fold less sensitive, Ba/F3 cells transformed with BRAF^T529N,V600E vs BRAF^V600E” value [7] of the same compound?
**A.** 19 fold

**Q.** And the xenograft growth [8]?
**A.** tumor regression

**Q.** And the IC50 (COT)?
**A.** > 10000 nM

**Q.** And the bioavailability ([9]; Balb/c, mouse, plasma, po, 10 mg/kg)?
**A.** ~55%

**Q.** And the “area under the curve” value ([9]; oral 10 mg/kg/day)?
**A.** ~275,000 nM.hr

**Q.** And the plasma concentration ([9]; oral 10 mg/kg/day, at 14 hr, 10 mg/kg/day)?
**A.** ~1000 nM

**Q.** What about the “kinases inhibited in a panel of protein kinases” value [10] of the same compound?
**A.** only inhibit SRC, LCK, and the p38 mitogen-activated protein kinases (MAPKs)

**Q.** What about the “NRAS mutant cell growth inhibition, compared with PLX4720” value (NRAS mutant D04 cells) of the same compound?
**A.** more efficiently than does PLX4720

**Q.** What about the “activity against BRAF mutant cell lines” value [11] of the same compound?
**A.** active

**Q.** What about the “effect on MEK in NRAS mutant cells” value [12] of the same compound?
**A.** inhibit rather than activate MEK

**Q.** What about the “activity against RAS mutant cells” value [13] of the same compound?
**A.** also active

**Q.** And the PDX sensitivity [14]?
**A.** remains sensitive

**Q.** What about the “cell sensitivity compared with PLX4720” value [15] of the same compound?
**A.** more sensitive

**Q.** What about the “growth inhibition of BRAF mutant melanoma cells, compared with PLX4720” value (BRAF^V600E A375 cells) of the same compound?
**A.** more potently than PLX4720

**Q.** What about the body weight (patient #3 PDX; 20 mg/kg daily gavage, patient #3 PDX study) of the same compound?
**A.** without causing body weight loss

**Q.** And the PDX growth (patient #3 PDX; [21])?
**A.** tumor regression

**Q.** And the “activity against BRAF and NRAS wild-type cancer cells” value [16]?
**A.** not active

**Q.** And the “sensitivity of SK-Mel 23 cells” value (SK-Mel 23 cells)?
**A.** sensitive

**Q.** What about the IC50 (SRC) of the same compound?
**A.** 15 nM

**Q.** And the IC50 (MEK1)?
**A.** > 10000 nM

**Q.** What about the “inhibition of SFKs” value ([17]; 0.5 µM, Figure S3B) of the same compound?
**A.** also inhibit SFKs

**Q.** What about the “inhibition of MEK, ERK, and SRC” value ([17]; 1 μM) of the same compound?
**A.** inhibit MEK, ERK, and SRC

**Q.** And the “fold less active against BRAF^T529N,V600E than BRAF^V600E” value (BRAF^T529N,V600E)?
**A.** 42 fold

**Q.** What about the “ERK activity in SK-Mel 23 cells” value [18] of the same compound?
**A.** sensitive

**Q.** And the IC50 (LCK)?
**A.** 3 nM

**Q.** And the cell sensitivity (patient #3 tumor cells)?
**A.** sensitive

**Q.** What about the body weight (PDX from patient #5; 20 mg/kg daily gavage, patient #5 PDX study) of the same compound?
**A.** did not observe any loss in body weight

**Q.** What about the “PDX sensitivity compared with PLX4720” value (PDX from patient #5; [21]) of the same compound?
**A.** more sensitive

**Q.** What about the body weight (PDX from patient #13) of the same compound?
**A.** no body weight loss was observed

**Q.** And the “inhibition of MEK and ERK” value [19]?
**A.** inhibit MEK and ERK

**Q.** What about the “inhibition of ERK and SRC in PDX” value [20] of the same compound?
**A.** inhibit ERK and SRC

**Q.** What about the body weight (patient #4 PDX; 20 mg/kg daily gavage, patient #4 PDX study) of the same compound?
**A.** do not cause body weight loss

**Q.** What about the PDX sensitivity (patient #4 PDX; [21]) of the same compound?
**A.** sensitive

**Q.** And the IC50 (CRAF)?
**A.** 6 nM

**Q.** What about the IC50 (BRAF) of the same compound?
**A.** 252 nM
